For the experiment, the system named is L1210 leukemia ip in BDF1 mice, survival T/C. Briefly: NCI In Vivo Anticancer Drug Screen. Data for tumor model L1210 Leukemia (intraperitoneal) in B6D2F1 (BDF1) mice. Conditions: endpoint: mean survival time, higher = longer survival. In outline:
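Ratio derived from survival: compound-dosed mice over vehicle-dosed mice, all bearing a transplantable tumor.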

Setting [1] is: dose: 100.0 mg/kg/injection, schedule: Q01DX009 (ip), vehicle: Klucel (hydroxypropylcellulose) (HPC).
Setting [2] is: dose: 200.0 mg/kg/injection, schedule: Q01DX009 (ip), vehicle: Klucel (hydroxypropylcellulose) (HPC).
Where [3] appears, read: dose: 400.0 mg/kg/injection, schedule: Q01DX009 (ip), vehicle: Klucel (hydroxypropylcellulose) (HPC).
The mark [4] stands for this setting: dose: 50.0 mg/kg/injection, schedule: Q01DX001 (ip), vehicle: saline.
The mark [5] stands for this setting: dose: 100.0 mg/kg/injection, schedule: Q01DX001 (ip), vehicle: saline.
Setting [6] is: dose: 200.0 mg/kg/injection, schedule: Q01DX001 (ip), vehicle: saline.
Setting [7] is: dose: 100.0 mg/kg/injection, schedule: Q04DX003 (ip), vehicle: Klucel (hydroxypropylcellulose) (HPC).
The mark [8] stands for this setting: dose: 200.0 mg/kg/injection, schedule: Q04DX003 (ip), vehicle: Klucel (hydroxypropylcellulose) (HPC).
The mark [9] stands for this setting: dose: 100.0 mg/kg/injection, schedule: Q04DX003 (ip), vehicle: saline with Tween-80.
The mark [10] stands for this setting: dose: 200.0 mg/kg/injection, schedule: Q04DX003 (ip), vehicle: saline with Tween-80.
[11] abbreviates: dose: 400.0 mg/kg/injection, schedule: Q04DX003 (ip), vehicle: saline with Tween-80.
Where [12] appears, read: dose: 400.0 mg/kg/injection, schedule: Q01DX001 (ip), vehicle: saline.
Where [13] appears, read: dose: 100.0 mg/kg/injection, schedule: Q01DX001 (ip), vehicle: Klucel (hydroxypropylcellulose) (HPC).
[14] abbreviates: dose: 200.0 mg/kg/injection, schedule: Q01DX001 (ip), vehicle: Klucel (hydroxypropylcellulose) (HPC).
[15] abbreviates: dose: 25.0 mg/kg/injection, schedule: Q01DX009 (ip), vehicle: saline.
Where [16] appears, read: dose: 50.0 mg/kg/injection, schedule: Q01DX009 (ip), vehicle: saline.

Where “and” joins values, the source holds several entries; their conditions need not be identical. Equal entries are not always repeated. Toxic doses and inconclusive results are not listed. Square brackets hold non-standard residues; d marks the D form. Peptide text beside a SMILES is read from it. * marks the point of attachment. Cbz = O=C(OCc1ccccc1)*; Abu = CC[CH](N)C(=O)O; OBn = c1ccc(CO*)cc1

As to `CCC(NC(=O)OCc1ccccc1)C(=O)NC(C(=O)OCc1ccccc1)C(C)C` (stereo not drawn) (Cbz-[Abu]-Val-OBn; configuration not given here), the T/C was 96 % of control under setting [1], 99 % of control under setting [2] and 96 % of control under setting [3].

In the case of `CC(=O)c1ccccc1OB(F)F`, the T/C is 98 % of control under setting [4], 98 % of control under setting [5] and 106 % of control under setting [6].

In the case of `Cc1nc(-c2ccccc2)c(-c2ccccc2)[nH]1`, the T/C runs as follows: (dose: 50.0 mg/kg/injection, schedule: Q01DX009 (ip), vehicle: Klucel (hydroxypropylcellulose) (HPC)) 99 % of control; (dose: 66.0 mg/kg/injection, schedule: Q01DX009 (ip), vehicle: Klucel (hydroxypropylcellulose) (HPC)) 113 % of control; under setting [1], 111 % of control; under setting [7], 101 % of control; (dose: 150.0 mg/kg/injection, schedule: Q01DX009 (ip), vehicle: Klucel (hydroxypropylcellulose) (HPC)) 92 % of control; under setting [8], 101 % of control.

Turning to `CC(c1ccc2ccccc2c1)C1CCCCC1C(=O)O` (stereo not drawn), the T/C was 96 % of control under setting [9], 97 % of control under setting [10] and 94 % of control under setting [11].

As for `O=C(O)/C=C\C=C\c1ccccc1`, the T/C is, setting by setting: under setting [5], 89 % of control; under setting [6], 94 % of control; under setting [12], 96 % of control.

On to `CC(=O)Nc1ccc(CCCCc2c(C)nc(NC(C)=O)[nH]c2=O)cc1`, for which the T/C under setting [13] was 91 % of control and the T/C under setting [14] is 89 % of control.

On to `CN(C)CC/C=C1\c2ccccc2CSc2ccccc21`, for which the T/C reads like this: (dose: 6.25 mg/kg/injection, schedule: Q01DX009 (ip), vehicle: saline) 95 % of control; (dose: 12.5 mg/kg/injection, schedule: Q01DX009 (ip), vehicle: saline) 108 % of control; under setting [15], 109 % of control; (dose: 25.0 mg/kg/injection, schedule: Q04DX003 (ip), vehicle: saline) 100 % of control; under setting [16], 101 % of control; (dose: 50.0 mg/kg/injection, schedule: Q04DX003 (ip), vehicle: saline) 89 % of control. Also, the T/C (dose: 100.0 mg/kg/injection, schedule: Q04DX003 (ip), vehicle: saline) is 97 % of control.

On to `CC(C)C(C#N)(CCN1CCCCC1)c1cccc2ccccc12` (stereo not drawn), for which the T/C under setting [1] is 92 % of control.

Take `NC(=S)N/N=C/c1ccc(Br)s1`: the T/C is, setting by setting: (dose: 100.0 mg/kg/injection, schedule: Q01DX001 (ip), vehicle: carboxymethylcellulose (CMC)) 87 % of control; (dose: 200.0 mg/kg/injection, schedule: Q01DX001 (ip), vehicle: carboxymethylcellulose (CMC)) 100 % of control.

Consider `COc1nccc2ccccc12`, for which the T/C is 94 % of control under setting [9] and 92 % of control under setting [10].

As for `CCOC(=O)NC(NC(=O)OCC)C(Br)(Br)Br`, the T/C (dose: 25.0 mg/kg/injection, schedule: Q01DX001 (ip), vehicle: Klucel (hydroxypropylcellulose) (HPC)) was 112 % of control; the T/C (dose: 25.0 mg/kg/injection, schedule: Q04DX002 (ip), vehicle: Klucel (hydroxypropylcellulose) (HPC)) was 104 % of control; the T/C (dose: 50.0 mg/kg/injection, schedule: Q01DX001 (ip), vehicle: Klucel (hydroxypropylcellulose) (HPC)) is 112 % of control; the T/C (dose: 50.0 mg/kg/injection, schedule: Q04DX002 (ip), vehicle: Klucel (hydroxypropylcellulose) (HPC)) was 106 % of control; the T/C under setting [13] is 108 % of control; the T/C (dose: 100.0 mg/kg/injection, schedule: Q04DX002 (ip), vehicle: Klucel (hydroxypropylcellulose) (HPC)) was 104 % of control. Further, the T/C reads like this: under setting [14], 116 % of control; (dose: 200.0 mg/kg/injection, schedule: Q04DX002 (ip), vehicle: Klucel (hydroxypropylcellulose) (HPC)) 102 % of control.

In the case of `CCCCCCCCCCCCCCCCC/C=N/Nc1nnc(N/N=C/CCCCCCCCCCCCCCCCC)c2ccccc12`, the T/C is 95 % of control under setting [4], 103 % of control under setting [5], 101 % of control under setting [6] and 101 % of control under setting [12].

Consider `N#CC(C(=O)c1ccccc1)c1ccccc1` (stereo not drawn), for which the T/C (dose: 62.5 mg/kg/injection, schedule: Q04DX002 (ip), vehicle: Klucel (hydroxypropylcellulose) (HPC)) was 108 % of control and the T/C (dose: 125.0 mg/kg/injection, schedule: Q04DX002 (ip), vehicle: Klucel (hydroxypropylcellulose) (HPC)) was 96 % of control.

Consider `CC(=O)NC(=O)NC(=O)CC#N`, for which the T/C is 90 % of control under setting [13]; 88 % of control under setting [14]; 93 % of control (dose: 400.0 mg/kg/injection, schedule: Q01DX001 (ip), vehicle: Klucel (hydroxypropylcellulose) (HPC)).

Regarding `Cc1cc(N(CCOS(C)(=O)=O)CCOS(C)(=O)=O)ccc1C=Nc1ccc(-c2csc(COc3ccccc3)n2)cc1`, the T/C (dose: 66.0 mg/kg/injection, schedule: Q04DX003 (ip), vehicle: Klucel (hydroxypropylcellulose) (HPC)) was 116 % of control; the T/C under setting [7] was 98 % of control; the T/C (dose: 125.0 mg/kg/injection, schedule: Q04DX003 (ip), vehicle: Klucel (hydroxypropylcellulose) (HPC)) is 158 % of control; the T/C (dose: 150.0 mg/kg/injection, schedule: Q04DX003 (ip), vehicle: Klucel (hydroxypropylcellulose) (HPC)) was 154 % of control; the T/C under setting [8] was 151 % of control.

As for `CCNC(=O)c1ccccc1-c1ccccc1C(=O)NCC`, where the note is “dose: 100.0 mg/kg/injection, schedule: Q01DX001 (ip), vehicle: other”, the T/C was 104 % of control.

In the case of `N#Cc1cnc(SCC(=O)O)nc1N`, the T/C is 96 % of control under setting [5], 102 % of control under setting [6] and 102 % of control under setting [12].

As to `c1ccc2c(c1)CCCc1cn[nH]c1-2`, the T/C under setting [5] was 98 % of control and the T/C under setting [6] is 95 % of control.

On to `CCCc1c(OCC)c(OC)c2c3c(c(-c4c(C)cc5c(CCC)c(OCC)c(OC)c6c5c4OC6OC)c(C)cc13)OC2OC` (stereo not drawn), for which the T/C by setting is: under setting [1], 94 % of control; under setting [2], 98 % of control; under setting [3], 98 % of control.

With `O=C(Sc1ccccc1)N(c1ccccc1)c1ccccc1`, the T/C reads like this: (dose: 100.0 mg/kg/injection, schedule: Q04DX002 (ip), vehicle: gum acacia) 117 % of control; (dose: 200.0 mg/kg/injection, schedule: Q04DX002 (ip), vehicle: gum acacia) 101 % of control; (dose: 400.0 mg/kg/injection, schedule: Q04DX002 (ip), vehicle: gum acacia) 96 % of control.

As for `O=C(Nc1ccc([N+](=O)[O-])cc1)c1cc(Cl)c2ccccc2c1O`, the T/C was 106 % of control under setting [1] and 98 % of control under setting [2].

On to `CC1=NCCN1CCNC(=O)c1ccc(C(=O)NCCN2CCN=C2C)cc1`, for which the T/C was 103 % of control (dose: 5.0 mg/kg/injection, schedule: Q01DX001 (ip), vehicle: saline) and 101 % of control (dose: 10.0 mg/kg/injection, schedule: Q01DX001 (ip), vehicle: saline).

In the case of `CN(Cc1ccccc1)C(=O)NC1CCCCC1`, the T/C is, setting by setting: under setting [15], 100 % of control and 101 % of control; under setting [16], 100 % of control and 101 % of control; (dose: 100.0 mg/kg/injection, schedule: Q01DX009 (ip), vehicle: saline with Tween-80) 102 % of control; (dose: 100.0 mg/kg/injection, schedule: Q01DX009 (ip), vehicle: saline) 97 % of control and 100 % of control; (dose: 100.0 mg/kg/injection, schedule: Q04DX002 (ip), vehicle: saline with Tween-80) 94 % of control and 96 % of control; under setting [9], 101 % of control. The T/C was 94 % of control and 105 % of control (dose: 200.0 mg/kg/injection, schedule: Q01DX009 (ip), vehicle: saline with Tween-80); 96 % of control and 97 % of control (dose: 200.0 mg/kg/injection, schedule: Q01DX009 (ip), vehicle: saline); 96 % of control and 100 % of control (dose: 200.0 mg/kg/injection, schedule: Q04DX002 (ip), vehicle: saline with Tween-80); 102 % of control under setting [10]; 95 % of control and 105 % of control (dose: 400.0 mg/kg/injection, schedule: Q01DX009 (ip), vehicle: saline with Tween-80); 100 % of control and 92 % of control (dose: 400.0 mg/kg/injection, schedule: Q04DX002 (ip), vehicle: saline with Tween-80). Further, the T/C under setting [11] is 95 % of control.
